Assay results as given in US20230286973A1, “PROTEIN SECRETION INHIBITORS” (KEZAR LIFE SCIENCES, priority 2020, published 2023).

Legend:
[1] = test system: IL-2-FL/Gaussia Luciferase; assay: Dox Induced IL2-FL-Gluc Assay; type: cell-based; conditions: for IC50: 24 hr Dox induction, 293FRT/TO cells, mean, read-out: 24 hr Dox Inducible IL2FLGluc 293FRT/TO: Mean IC50; for 24 hr Dox Inducible IL2FLGluc 293FRT/TO: IL2/PD1: ratio of IL2FLGluc IC50 to PD1ssGluc IC50, '<=>' given where both are I.A.
Method in brief: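 Stable Flp-In 293 T-REx cells carrying doxycycline-inducible full-length IL-2 (aa 1-153) fused to Gaussia luciferase, plated the day before assay. Compound dilutions added in medium containing doxycycline, incubated at 37 °C, 5% CO2. Undefined stereocentres mean data refer to stereoisomer mixtures.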

[2] = test system: HER3-ss+4aa/Gaussia Luciferase; assay: Dox-Induced Her3-ss-Gluc Assay; type: cell-based; conditions: 24 hr Dox induction; 293FRT/TO cells; mean; read-out: 24 hr Dox Inducible Her3(ss + 4)Gluc 293FRT/TO: Mean IC50
Method in brief: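 Stable Flp-In 293 T-REx cells carried a doxycycline-inducible HER3 signal sequence (+4 aa) fused to Gaussia luciferase. Cells were plated the day before the assay. Compound dilutions in DMSO/media containing doxycycline were then added, and plates were incubated at 37 °C, 5% CO2.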

[3] = Liver Microsome Stability Assay (monkey); conditions: monkey liver microsomes, with NADPH, 1.0 uM compound
Experimental: (§1) Stability of a compound was assessed in the presence of liver microsomes from various sources—mouse, rat, monkey and human liver microsomes. 1.0 uM compound, 0.4% DMSO in 0.1 M Potassium Phosphate with 1.0 mg/mL liver microsomes, were incubated at 37° C. with or without 1 mM NADPH. The samples were quenched at 0, and 30 minutes.

[4] = Liver Microsome Stability Assay (mouse); conditions: mouse liver microsomes, with NADPH, 1.0 uM compound
Experimental: as §1

[5] = Liver Microsome Stability Assay (human); conditions: human liver microsomes, with NADPH, 1.0 uM compound
Experimental: as §1

[6] = test system: multiple myeloma cell line U266B1; assay: U266 Cell Viability Assay; type: cell-based, human; conditions: Homo sapiens, U-266, 48 h, U266B1 cells, Celltiter-Glo
Method in brief: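 U266B1 multiple myeloma cells in RPMI 1640/10% FBS were treated with compound dilutions for 48 h at 37 °C, 5% CO2. Viability was measured by CellTiter-Glo luminescence; compounds drawn without stereochemistry were tested as stereoisomer mixtures.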

[7] = test system: multiple myeloma cell line NCI-H929; assay: H929 Cell Viability Assay; type: cell-based, human; conditions: Homo sapiens, NCI-H929, 48 h, NCI-H929 cells, Celltiter-Glo
Method in brief: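 NCI-H929 cells in RPMI 1640 with 10% FBS were treated with compound dilutions for 48 h at 37° C, 5% CO2. Viability was read by CellTiter-Glo luminescence. Undefined stereocentres denote stereoisomer mixtures.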

[8] = test system: TNFα-FL/Gaussia Luciferase; assay: Dox Induced TNFα-FL-Gluc Assay; type: cell-based; conditions: for IC50: 24 hr Dox induction, 293FRT/TO cells, mean, read-out: 24 hr Dox Inducible TNFaFLGluc 293FRT/TO: Mean IC50; for 24 hr Dox Inducible TNFaFLGluc 293FRT/TO: TNF/PD1: ratio of TNFaFLGluc IC50 to PD1ssGluc IC50, '<=>' given where both are I.A.
Method in brief: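 Flp-In 293 T-REx cells stably carrying doxycycline-inducible full-length TNFα (aa 1-233) fused to Gaussia luciferase. Plated the day before, then treated with compound dilutions in doxycycline-containing medium at 37° C, 5% CO2.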

[9] = test system: PD1-ss+10aa/Gaussia Luciferase; assay: Dox-Induced PD1-ss-Gluc Assay; type: cell-based; conditions: 24 hr Dox induction; 293FRT/TO cells; mean; read-out: 24 hr Dox Inducible PD1ssGluc 293FRT/TO: Mean IC50
Method in brief: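 Flp-In 293 T-REx, stable line; Tet-regulated PD1-ss+10aa fused to Gaussia luciferase; plated day prior; cpd + doxycycline in DMSO/media; 37 °C, 5% CO2.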

[10] = Liver Microsome Stability Assay (rat); conditions: rat liver microsomes, with NADPH, 1.0 uM compound
Experimental: as §1

Row | IC50 [1] | IC50 [2] | Liver Microsome Stability (Multiple Species): Monkey - % Remaining after 30 min w/NADPH [3] | Liver Microsome Stability (Multiple Species): Mouse - % Remaining after 30 min w/NADPH [4] | Liver Microsome Stability (Multiple Species): Human - % Remaining after 30 min w/NADPH [5] | EC50 [6] | EC50 [7] | IC50 [8] | IC50 [9] | Liver Microsome Stability (Multiple Species): Rat - % Remaining after 30 min w/NADPH [10] | Compound | 24 hr Dox Inducible IL2FLGluc 293FRT/TO: IL2/PD1 [1] | 24 hr Dox Inducible TNFaFLGluc 293FRT/TO: TNF/PD1 [8]
1 | 0.771 µM | 0.645 µM | 0.1% | 2.75% | 0.43% | > 25 µM | 6.73 µM | 2.05 µM | 0.32 µM | 1.43% | CC(=O)N1CCC(O[C@@H]2C[C@H](c3csc(NC(=O)c4cccn4Cc4ccncc4)n3)N(c3ccccc3)C2)CC1 [Compound E40, N-(4-((2R,4R)-4-((1-acetylpiperidin-4-yl)oxy)-1-phenylpyrrolidin-2-yl)thiazol-2-yl)-1-(pyridin-4-ylmethyl)-1H-pyrrole-2-carboxamide] | 2.4 | 6.42
2 | 0.538 µM | 0.57 µM | 0.34% | 0.41% | 0.33% | 14.4 µM | 7.74 µM | 1.56 µM | 0.301 µM | 0.61% | COc1ccc(O[C@H]2CCC[C@H](c3csc(NC(=O)c4cccn4Cc4ccncc4)n3)C2)nc1 [Compound E41, N-(4-((1S,3S)-3-((5-methoxypyridin-2-yl)oxy)cyclohexyl)thiazol-2-yl)-1-(pyridin-4-ylmethyl)-1H-pyrrole-2-carboxamide] | 1.8 | 5.2
3 | 2.59 µM | 1.12 µM | 0.26% | 0.18% | 0.09% | > 25 µM | 17.3 µM | 8.11 µM | 0.473 µM | 0.38% | COc1ccc(O[C@@H]2CC[C@H](c3csc(NC(=O)c4cccn4Cc4ccncc4)n3)C2)nc1 [Compound E42, N-(4-((1S,3R)-3-((5-methoxypyridin-2-yl)oxy)cyclopentyl)thiazol-2-yl)-1-(pyridin-4-ylmethyl)-1H-pyrrole-2-carboxamide] | 5.5 | 17.2
4 | 10.9 µM | 3.15 µM | 0.35% | 0.5% | 0.28% | 20.3 µM | 16.7 µM | 21.4 µM | 1.14 µM | 0.9% | O=C(Nc1nc([C@@H]2CCN(c3ccccn3)C2)cs1)c1cccn1Cc1ccncc1 [Compound E43, (R)-N-(4-(1-(pyridin-2-yl)pyrrolidin-3-yl)thiazol-2-yl)-1-(pyridin-4-ylmethyl)-1H-pyrrole-2-carboxamide] | 9.6 | 18.8
5 | 2.72 µM | 1.32 µM | 0.59% | 0.24% | 0.5% | > 25 µM | 22.9 µM | 11.6 µM | 0.453 µM | 0.72% | O=C(Nc1nc([C@H]2CCN(c3ccccn3)C2)cs1)c1cccn1Cc1ccncc1 [Compound E44, (S)-N-(4-(1-(pyridin-2-yl)pyrrolidin-3-yl)thiazol-2-yl)-1-(pyridin-4-ylmethyl)-1H-pyrrole-2-carboxamide] | 6 | 25.5
6 | 2.37 µM | 1.45 µM | 0.23% | 2.25% | 0.19% | 14.3 µM | 17.3 µM | 6.03 µM | 0.531 µM | 1.2% | O=C(Nc1nc([C@H]2CCCN(c3ccccn3)C2)cs1)c1cccn1Cc1ccncc1 [Compound E45, (S)-N-(4-(1-(pyridin-2-yl)piperidin-3-yl)thiazol-2-yl)-1-(pyridin-4-ylmethyl)-1H-pyrrole-2-carboxamide] | 4.5 | 11.4
7 | 0.115 µM | 0.0604 µM | 0.6% | 22.1% | 7.36% | > 25 µM | 3.65 µM | 0.529 µM | 0.0291 µM | 1.85% | O=C(Nc1nc([C@H]2CCCN2c2cccnc2)cs1)c1cccn1Cc1ccncc1 [Compound E46, (R)-N-(4-(1-(pyridin-3-yl)pyrrolidin-2-yl)thiazol-2-yl)-1-(pyridin-4-ylmethyl)-1H-pyrrole-2-carboxamide] | 3.9 | 18.1
8 | 1.44 µM | 1.43 µM | 5.23% | 0.55% | 0.57% | 13.9 µM | 10.4 µM | 4.06 µM | 0.547 µM | 2.13% | O=C(Nc1nc([C@@H]2CCCN(c3ccccn3)C2)cs1)c1cccn1Cc1ccncc1 [Compound E47, (R)-N-(4-(1-(pyridin-2-yl)piperidin-3-yl)thiazol-2-yl)-1-(pyridin-4-ylmethyl)-1H-pyrrole-2-carboxamide] | 2.6 | 7.43
9 | 7.83 µM | 13.5 µM | 0.12% | 2.74% | 0.93% | > 25 µM | > 25 µM | > 25 µM | 7.89 µM | 0.45% | O=C(Nc1nc([C@H]2CCCN2c2ccncc2)cs1)c1cccn1Cc1ccncc1 [Compound E48, (R)-N-(4-(1-(pyridin-4-yl)pyrrolidin-2-yl)thiazol-2-yl)-1-(pyridin-4-ylmethyl)-1H-pyrrole-2-carboxamide] | 0.99 | >3.17
10 | 5.56 µM | 4.37 µM | 0.08% | 0.23% | 0.06% | > 25 µM | > 25 µM | > 25 µM | 1.96 µM | 0.64% | O=C(NC1=NC(CCc2ccccc2)CS1)c1cccn1Cc1ccncc1 (stereo not drawn) [Compound E50] | 2.8 | >12.8
